Data published in PubChem BioAssay (NCI).
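These data come from cells grown in 96-well plates and exposed to compound for 48 hours at five concentrations. Abbreviation: GI50, concentration required for 50% inhibition of growth. TGI: total growth inhibition.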

Legend:
Test in all cases: growth of human tumour cells (NCI), 48 h
[1] = system: A498 renal
[2] = system: CAKI-1 renal
[3] = system: HL-60(TB) leukemia
[4] = system: HOP-62 NSCLC
[5] = system: HOP-92 NSCLC
[6] = system: MDA-MB-435
[7] = system: NCI/ADR-RES ovarian
[8] = system: T-47D breast
[9] = system: UACC-257 melanoma
[10] = system: UACC-62 melanoma

SMILES	GI50 [1]	TGI [1]	GI50 [2]	TGI [2]	GI50 [3]	TGI [3]	GI50 [4]	TGI [4]	GI50 [5]	TGI [5]	GI50 [6]	TGI [6]	GI50 [7]	TGI [7]	GI50 [8]	TGI [8]	GI50 [9]	TGI [9]	GI50 [10]	TGI [10]
COC(=O)CCCCCCCCC(=O)c1c(C)[nH]c(/C=C2\N=C(c3ccc[nH]3)C=C2OC)c1C	> 100 µM	> 100 µM	26.6 µM	> 87.7 µM	2.86 µM	16.6 µM	11.2 µM	> 57.9 µM	4.73 µM	> 30.5 µM	3.92 µM	> 100 µM	24.2 µM	> 100 µM	> 48.1 µM	> 89.3 µM	14.4 µM	87.8 µM	10.7 µM	> 82.9 µM
COc1ccc2c(c1)/C(=N/OC(C)=O)c1c-2c(Nc2ccc(/C(C)=N/OC(C)=O)cc2)nc2ccccc12	> 100 µM	> 100 µM	31.8 µM	98.2 µM	16.3 µM	> 100 µM	38.1 µM	> 100 µM	70.1 µM	> 100 µM	86.2 µM	> 100 µM	33 µM	> 100 µM	20.6 µM	43 µM	> 100 µM	> 100 µM	25.5 µM	63.8 µM
O=[N+]([O-])C1(CO)COC2(OC1)c1ccccc1-c1ccccc12	–	> 100 µM	–	> 100 µM	–	58.5 µM	–	> 100 µM	–	> 95.7 µM	–	> 100 µM	–	> 72.9 µM	–	77.2 µM	–	> 100 µM	–	> 100 µM
CN(C)CC1CCCCCCCCCCC1=O (stereo unspecified)	–	–	> 100 µM	> 100 µM	> 100 µM	> 100 µM	> 100 µM	> 100 µM	> 100 µM	> 100 µM	> 100 µM	> 100 µM	> 100 µM	> 100 µM	> 100 µM	> 100 µM	–	> 10 µM	–	> 100 µM
Fc1ccc(-c2ncn(C3CCNCC3)c2-c2ccnc(Oc3ccc(Oc4ccccc4)cc3)n2)cc1	3.57 µM	7.01 µM	3.92 µM	7.74 µM	3.93 µM	8.33 µM	4.05 µM	7.64 µM	0.651 µM	4.15 µM	3.92 µM	8.46 µM	3.48 µM	7.04 µM	4.45 µM	8.55 µM	4.71 µM	8.54 µM	4.29 µM	7.78 µM
